Experimental data reported in patent publication US9192595B2, “Compounds with a skin pigmenting activity and pharmaceutical or cosmetic compositions containing them” (priority 2010, dated 2015).

How the values were obtained:
Normal human scalp skin = assay: Epidermal pigmentation in full-thickness skin organ culture (quantitative Masson-Fontana staining); format: cell-based
Experimental: This experimental study on the active ingredient octatrienoic acid according to the invention was based on organ cultures of skin biopsies, which were tested in 4 groups (3 skin biopsies/well) and incubated with different concentrations of the active ingredient for 6 days.
Normal human scalp skin was obtained from a person undergoing routine face-lift surgery, subject to their informed consent. All experiments were performed in accordance with the Declaration of Helsinki, with the approval of an ad hoc Ethical Committee.
Biopsies 3-4 mm in size were cultured at 37° C. for 6 days in Williams' E medium (Biochrom, Cambridge, U.K.) supplemented with 100 IU mL^−1 penicillin, 10 μg mL^−1 streptomycin (Gibco, Karlsruhe, Germany), 10 μg mL^−1 insulin (Sigma, Taufkirchen, Germany), 10 ng mL^−1 hydrocortisone (Sigma) and 2 mmol L^−1 L-glutamine (Invitrogen, Paisley, UK).
Three different concentrations of octatrienoic acid (0.1 μg/mL, 0.25 μg/mL, 0.5 μg/mL) or the reference medium were administered once, at each change of medium (i.e. every 48 hours).
For histochemical melanin assessment, Masson-Fontana staining was applied to frozen adult human scalp skin sections. Melanin stained as brown spots and the degree of pigmentation was evaluated using the quantitative Masson-Fontana test, as described elsewhere (Ito et al., 2005). This method gives a sensitive and reliable indication of changes in melanin synthesis, as shown by standard tyrosinase expression and enzyme activity assays. (Kauser et al., 2006)
Staining intensity was analysed in a previously-defined reference area of the epidermis using ImageJ software (National Institute of Health).
The statistical analysis was performed using Student's two-tailed t-test for independent samples.

tyrosinase mRNA = assay: Tyrosinase mRNA expression by real-time RT-PCR in primary melanocyte cultures; format: cell-based, human; settings: 24 h incubation; 40 and 55 μm; NHM LP and NHM HP; vs. Ctr; FIG. 3
Text: (§1) A second experimental study assessed the action of the compounds according to the invention on the phenomena of melanocyte differentiation in the melanogenic process, as described below with reference to the attached drawings in FIGS. 3, 4 and 5. For this purpose, octatrienoic acid (called Octa in the diagrams, for the sake of brevity) was used on foreskin primary melanocyte cultures with varying degrees of basal pigmentation to assess the following parameters: • a) mRNA and tyrosinase protein expression, using real-time RT-PCR and Western-blot methods; • b) enzymatic activity of tyrosinase by spectrophotometry; • c) Quantification of melanin genesis by spectrophotometry.
Tyrosinase mRNA expression was assessed by real-time RT-PCR on mRNA specimens extracted from cells after 24 h of incubation with octatrienoic acid at concentrations of 40 and 55 μm.
Forskoline (FSK), a known adenylate cyclase activator capable of promoting melanin synthesis, was used as a control for comparison with the activity of octatrienoic acid.
For these columns, *=p<0.01 vs. Ctr, **=p<0.001 vs. Ctr, and $=p<0.05 vs. Ctr.

tyrosinase protein = assay: Western blot analysis of tyrosinase protein expression in primary melanocyte cultures; format: cell-based, human; settings: 72 h; same doses (40 and 55); Western blot on protein extracts
Text: as §1

tyrosinase = assay: Tyrosinase enzymatic activity by spectrophotometry on melanocyte cell lysates; format: cell-based, human; settings: 72 h; 40 and 55 μM; NHM LP and NHM HP; p<0.05 vs. Ctr; FIG. 4
Text: as §1
The activity of tyrosinase was evaluated by spectrophotometry on cell lysates derived from specimens incubated for 72 h with octatrienoic acid at concentrations of 40 and 55 μM, vs. control culture.
For these columns, *=p<0.05 vs. Ctr.

[1] = system: foreskin primary melanocyte cultures; assay: Intracellular melanin content by spectrophotometry in melanocyte cell lysates; format: cell-based, human; settings: 72 h; 40 and 55 μM; NHM LP and NHM HP; vs. Ctr; FIG. 5
Text: as §1
In FIG. 5, *=p<0.05 vs. Ctr, **=p<0.01 vs. Ctr, $=p<0.001 vs. ctr.

SMILES: C/C=C/C=C/C=C/C(=O)O [octatrienoic acid]
- intensity of Masson-Fontana staining (Normal human scalp skin; day 6, each dose (0.1, 0.25, 0.5 μg/mL) by comparison with the medium alone, FIG. 1): marked increase
- pigmentation in the basal layer of the epidermis (Normal human scalp skin; day 6, each dose administered, microphotographs x200, FIG. 2): increased pigmentation
- skin pigmentation (Normal human scalp skin; skin culture, all three doses tested (0.1, 0.25, 0.5 μg/mL), 6 days): increased the skin pigmentation
- tyrosinase mRNA expression (Rel tyr mRNA expression, fold change) (tyrosinase mRNA): significant induction
- melanogenic enzyme (tyrosinase) protein expression (tyrosinase protein): induced melanogenic enzyme protein expression
- tyrosinase enzymatic activity, % of the Ctr (tyrosinase): significant increase
- quantity of intracellular melanins [1]: significant induction
